Experimental data as given in patent US12617779B2, “Self degradation-type CDK9 inhibitor prodrug and liposome encapsulating same” (Sumitomo Pharma Co., Ltd., priority 2021, dated 2026).

Assays:
[1] = Evaluation of conversion rate to active form in buffer solution (Experimental Example 1); format: physicochemical; conditions: for Production rate of Alvocidib / Residual rate: 25 umol/L in buffer solution
Summary of the method: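 Conversion to Alvocidib and loss of parent were followed by HPLC over 3 h (samples at 0, 0.5, 1, 2, 3 h). Incubations used 25 umol/L compound at 37 °C across pH 5.0–7.4, in 50 mM citrate below pH 6.0 and 50 mM phosphate from pH 6.0 upward.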

[2] = Evaluation of conversion rate to active form in human plasma (Experimental Example 3); format: in vitro ADME; conditions: 0.2 μmol/L, 37° C.; for Residual rate (%) of test compound: Human plasma
Summary of the method: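 Test compound at 0.2 μmol/L was incubated at 37° C in human or BALB/c mouse plasma and sampled at 0, 30 and 60 min or at 0, 60 and 120 min. Compound and Alvocidib were quantified by LC-MS/MS peak area. Attrition is relative to 0 min; conversion is relative to 0.2 μmol/L Alvocidib reference.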

CCN(C[C@@H]1CCCCN1)C(=O)Oc1cc(O)c2c(=O)cc(-c3ccccc3Cl)oc2c1[C@H]1CCN(C)C[C@H]1O [Example 1, 2-(2-chlorophenyl)-5-hydroxy-8-[(3S,4R)-3-hydroxy-1-methylpiperidin-4-yl]-4-oxo-4H-1-benzopyran-7-yl ethyl{[(2S)-piperidin-2-yl]methyl}carbamate ditrifluoroacetate]
Efficiency of conversion to Alvocidib ([1]; buffer solution, 37° C.): higher efficiency
Production rate of Alvocidib ([1]; pH5.0, 0 hr, 37° C.): 0.0%
Residual rate ([1]; pH5.0, 0 hr, 37° C.): 98.7%
Stability in buffer solution at pH 5 ([1]; pH 5, 37° C., up to 2 or 3 hours): stable
Production rate of Alvocidib ([1]; pH5.0, 0.5 hr, 37° C.): 0.4%
Residual rate ([1]; pH5.0, 0.5 hr, 37° C.): 98.4%
Production rate of Alvocidib ([1]; pH5.0, 1 hr, 37° C.): 0.7%
Residual rate ([1]; pH5.0, 1 hr, 37° C.): 98.1%
Production rate of Alvocidib ([1]; pH5.0, 2 hr, 37° C.): 1.3%
Residual rate ([1]; pH5.0, 2 hr, 37° C.): 97.4%
Production rate of Alvocidib ([1]; pH5.0, 3 hr, 37° C.): 1.8%
Residual rate ([1]; pH5.0, 3 hr, 37° C.): 96.9%
Production rate of Alvocidib ([1]; pH5.5, 0 hr, 37° C.): 0.0%
Residual rate ([1]; pH5.5, 0 hr, 37° C.): 98.8%
Production rate of Alvocidib ([1]; pH5.5, 0.5 hr, 37° C.): 1.0%
Residual rate ([1]; pH5.5, 0.5 hr, 37° C.): 97.3%
Production rate of Alvocidib ([1]; pH5.5, 1 hr, 37° C.): 1.8%
Residual rate ([1]; pH5.5, 1 hr, 37° C.): 97.1%
Production rate of Alvocidib ([1]; pH5.5, 2 hr, 37° C.): 3.5%
Residual rate ([1]; pH5.5, 2 hr, 37° C.): 95.3%
Production rate of Alvocidib ([1]; pH5.5, 3 hr, 37° C.): 5.1%
Residual rate ([1]; pH5.5, 3 hr, 37° C.): 93.8%
Production rate of Alvocidib ([1]; pH6.0, 0 hr, 37° C.): 0.0%
Residual rate ([1]; pH6.0, 0 hr, 37° C.): 99.2%
Production rate of Alvocidib ([1]; pH6.0, 0.5 hr, 37° C.): 3.3%
Residual rate ([1]; pH6.0, 0.5 hr, 37° C.): 95.5%
Production rate of Alvocidib ([1]; pH6.0, 1 hr, 37° C.): 6.3%
Residual rate ([1]; pH6.0, 1 hr, 37° C.): 92.5%
Production rate of Alvocidib ([1]; pH6.0, 2 hr, 37° C.): 12.0%
Residual rate ([1]; pH6.0, 2 hr, 37° C.): 86.8%
Production rate of Alvocidib ([1]; pH6.0, 3 hr, 37° C.): 17.0%
Residual rate ([1]; pH6.0, 3 hr, 37° C.): 81.8%
Production rate of Alvocidib ([1]; pH6.5, 0 hr, 37° C.): 0.0%
Residual rate ([1]; pH6.5, 0 hr, 37° C.): 98.4%
Production rate of Alvocidib ([1]; pH6.5, 0.5 hr, 37° C.): 8.7%
Residual rate ([1]; pH6.5, 0.5 hr, 37° C.): 90.2%
Production rate of Alvocidib ([1]; pH6.5, 1 hr, 37° C.): 16.4%
Residual rate ([1]; pH6.5, 1 hr, 37° C.): 82.0%
Production rate of Alvocidib ([1]; pH6.5, 2 hr, 37° C.): 30.1%
Residual rate ([1]; pH6.5, 2 hr, 37° C.): 68.4%
Production rate of Alvocidib ([1]; pH6.5, 3 hr, 37° C.): 40.7%
Residual rate ([1]; pH6.5, 3 hr, 37° C.): 57.7%
Production rate of Alvocidib ([1]; pH7.0, 0 hr, 37° C.): 0.0%
Residual rate ([1]; pH7.0, 0 hr, 37° C.): 98.9%
Production rate of Alvocidib ([1]; pH7.0, 0.5 hr, 37° C.): 23.2%
Residual rate ([1]; pH7.0, 0.5 hr, 37° C.): 75.0%
Production rate of Alvocidib ([1]; pH7.0, 1 hr, 37° C.): 41.1%
Residual rate ([1]; pH7.0, 1 hr, 37° C.): 57.8%
Production rate of Alvocidib ([1]; pH7.0, 2 hr, 37° C.): 65.3%
Residual rate ([1]; pH7.0, 2 hr, 37° C.): 33.5%
Production rate of Alvocidib ([1]; pH7.0, 3 hr, 37° C.): 77.1%
Residual rate ([1]; pH7.0, 3 hr, 37° C.): 21.0%
Production rate of Alvocidib ([1]; pH7.4, 0 hr, 37° C.): 0.4%
Residual rate ([1]; pH7.4, 0 hr, 37° C.): 98.5%
Conversion to Alvocidib at pH 7.4 ([1]; pH 7.4, 37° C., up to 3 hours): rapidly converted to Alvocidib
Production rate of Alvocidib ([1]; pH7.4, 0.5 hr, 37° C.): 44.9%
Residual rate ([1]; pH7.4, 0.5 hr, 37° C.): 53.8%
Production rate of Alvocidib ([1]; pH7.4, 1 hr, 37° C.): 69.3%
Residual rate ([1]; pH7.4, 1 hr, 37° C.): 29.3%
Production rate of Alvocidib ([1]; pH7.4, 2 hr, 37° C.): 87.6%
Residual rate ([1]; pH7.4, 2 hr, 37° C.): 11.3%
Production rate of Alvocidib ([1]; pH7.4, 3 hr, 37° C.): 91.4%
Residual rate ([1]; pH7.4, 3 hr, 37° C.): 6.9%
Residual rate (%) of test compound ([2]; 0 min): 100%
Residual rate (%) of test compound ([2]; 30 min): 6%
Residual rate (%) of test compound ([2]; 60 min): 0%
Conversion to Alvocidib in human plasma ([2]; human plasma, Examples up to 60 minutes, Comparative Examples up to 120 minutes): proceeded rapidly
